# Assay: Compound solubility in water
# Format: physicochemical
SMILES,solubility [µg/mL],Compound Solubility in Water [µg/mL]
Cc1cc(-c2ccc(F)cc2C#N)nc2c(C(=O)NC(C3CC3)C(F)(F)F)cnn12 (stereo not drawn) [III-151],0.1,–
C#CC(C)(C)NC(=O)c1cnn2c(C)cc(-c3cccc(Cl)c3)nc12 [III-81],1.5,–
COc1cc(-c2cc(C)n3ncc(C(=O)N[C@@H](C)C4CC4)c3n2)ccc1F [III-145],0.2,–
Cc1cc(-c2cccc(F)c2)nc2c(C(=O)N[C@@H](C)C(F)(F)F)cnn12 [III-362],0.6,–
Cc1cc(-c2ccc3c(c2)ncn3C)nc2c(C(=O)NC(C3CC3)C(F)(F)F)cnn12 (stereo not drawn) [III-303],3.2,–
Cc1cc(-c2nnc(C(C)C)o2)nc2c(C(=O)N[C@@H](C3CC3)C(F)(F)F)cnn12 [III-392],0.4,–
COCc1cc(-c2ccc(F)cc2)nc2c(C(=O)NC(C)(C)C3CC3)cnn12 [III-47],0.3,–
Cc1cc(-c2ccc(F)cc2C#N)nc2c(C(=O)NC(C)C(F)(F)F)cnn12 (stereo not drawn) [III-154],0.7,–
Cc1cc(-c2cccc3c2OCO3)nc2c(C(=O)NC(C3CC3)C(F)(F)F)cnn12 (stereo not drawn) [III-183],0.5,–
Cc1cc(-c2ccc3scnc3c2)nc2c(C(=O)NC(C)C(F)(F)F)cnn12 (stereo not drawn) [III-220],0.1,–
Cc1cc(-c2cnccc2C(F)(F)F)nc2c(C(=O)NC(C)C(F)(F)F)cnn12 (stereo not drawn) [III-284],13.2,–
Cc1cncc(-c2cc(C)n3ncc(C(=O)N[C@@H](C4CC4)C(F)(F)F)c3n2)c1 [III-277],5.3,–
Cc1cc(-c2cnccc2F)nc2c(C(=O)NC(C)C(F)(F)F)cnn12 (stereo not drawn) [III-199],7.8,–
Cc1cc(Cl)nc2c(C(=O)NC(C)(C)C3CC3)cnn12 [III-15],14.1,–
Cc1cc(N2CCCN(C(C)C)C2=O)nc2c(C(=O)NC(C3CC3)C(F)(F)F)cnn12 (stereo not drawn) [III-257],11.6,–
Cc1cc(-n2ccc(Cl)n2)nc2c(C(=O)NC(C)C(F)(F)F)cnn12 (stereo not drawn) [III-170],0.5,–
Cc1cc(-c2noc(C(C)C)n2)nc2c(C(=O)N[C@@H](C3CC3)C(F)(F)F)cnn12 [III-394],0.7,–
Cc1cc(-c2cc(F)ccn2)nc2c(C(=O)NC(C3CC3)C(F)(F)F)cnn12 (stereo not drawn) [III-205],0.1,–
Cc1ncc(-c2cc(C)n3ncc(C(=O)NC(C4CC4)C(F)(F)F)c3n2)o1 (stereo not drawn) [III-246],3.1,–
Cc1cc(-c2cccc(F)c2)nc2c(C(=O)N[C@H](C)C(F)(F)F)cnn12 [III-361],0.7,–
Cc1cc(-c2cccnc2)n2ncc(C(=O)N[C@@H](C)C3CC3)c2n1 [III-27],18,–

SMILES,solubility [µg/mL],Compound Solubility in Water [µg/mL]
Cc1cc(-c2ccc(F)cc2C#N)nc2c(C(=O)N[C@@H](C)C3CC3)cnn12 [III-152],0.5,–
Cc1cc(-n2ccc(F)n2)nc2c(C(=O)N[C@H](C3CC3)C(F)(F)F)cnn12 [III-173],1.4,–
COc1ccc(F)cc1-c1cc(C)n2ncc(C(=O)NC(C)C(F)(F)F)c2n1 (stereo not drawn) [III-194],0.4,–
COc1cncc(-c2cc(C)n3ncc(C(=O)NC(C4CC4)C(F)(F)F)c3n2)c1 (stereo not drawn) [III-265],1.3,–
Cc1cc(-c2cc(C)n3ncc(C(=O)NC(C4CC4)C(F)(F)F)c3n2)sn1 (stereo not drawn) [III-214],2.3,–
COc1cc(F)ccc1-c1cc(C)n2ncc(C(=O)NC(C)C(F)(F)F)c2n1 (stereo not drawn) [III-150],0.7,–
Cc1cc(-c2cccnc2)nc2c(C(=O)N[C@H]3CC[C@H](OC(C)(C)C)CC3)cnn12 [III-38],18.2,–
Cc1cc(-c2cccc(Cl)n2)nc2c(C(=O)NC(C)C(F)(F)F)cnn12 (stereo not drawn) [III-234],0.2,–
Cc1cc(-c2cnccc2C(F)(F)F)nc2c(C(=O)N[C@H](C3CC3)C(F)(F)F)cnn12 [III-353],8.3,–
Cc1cc(-c2cccc(F)c2C#N)nc2c(C(=O)N[C@@H](C)C3CC3)cnn12 [III-398],0.2,–
Cc1cc(-c2cncc(Cl)c2)nc2c(C(=O)N[C@@H](C3CC3)C(F)(F)F)cnn12 [III-121],0.7,–
Cc1ccc(-c2cc(C)n3ncc(C(=O)N[C@@H](C4CC4)C(F)(F)F)c3n2)cn1 [III-280],1.3,–
Cc1cc(N2CCN(C(C)C)C2=O)nc2c(C(=O)NC(C)(C)C)cnn12 [III-232],23.7,–
Cc1cc(-c2ccc(F)cc2)nc2c(C(=O)N[C@H](C)C3CC3)cnn12 [III-86],2.8,–
Cc1cc(-c2cccc3ncsc23)nc2c(C(=O)NC(C)C(F)(F)F)cnn12 (stereo not drawn) [III-221],0.2,–
Cc1cc(N2CCCN(C(C)C)C2=O)nc2c(C(=O)NC(C)(C)C(F)(F)F)cnn12 [III-262],19,–
Cc1ccc(-c2cc(C)n3ncc(C(=O)N[C@H](C4CC4)C(F)(F)F)c3n2)c(F)n1 [III-372],1.7,–
Cc1cc(-c2ccc(F)nc2)nc2c(C(=O)NC(C3CC3)C(F)(F)F)cnn12 (stereo not drawn) [III-112],–,0.8
Cc1cc(-c2cccc(F)c2)nc2c(C(=O)NC(C3CC3)C(F)(F)F)cnn12 (stereo not drawn) [III-111],0.07,–
Cc1cc(-c2ccc(F)cc2)nc2c(C(=O)N[C@H](C)C(F)(F)F)cnn12 [III-359],0.7,–
COCc1cc(-c2ccc(F)cc2)nc2c(C(=O)N[C@@H](C)C3CC3)cnn12 [III-46],3.4,–
